From publication PMC7932521, “2-aminobenzimidazoles for leishmaniasis: From initial hit discovery to in vivo profiling” (PLoS Neglected Tropical Diseases, 2021) come the findings set out here.

Each structure is given as a SMILES string.

Data set [1] deals with T1, Beta1 (Homo sapiens, UniProt P08588).
T1 construct: expressed in transfected cells; host or cells: CHO
In words: Bioprofiling 6pt Antag Beta1 CHO. The class given is cell-based. The settings on record: antagonist readout vs Norepinephrine. As for the experimental part: (§1) The compounds were evaluated across a panel of 20 liability targets (37 functional assays) which included functional cell-based GPCRs and ion channels in both agonist and antagonist readout, measuring calcium flux and biochemical functional assays for nuclear hormone receptors and phosphodiesterases using TR-FRET format, in a 6 point 1:3 dilution dose series (maximum final concentration of 10 μM).

Data set [2] has as its target T2, M2 (Homo sapiens, UniProt P08172).
T2 construct: expressed in transfected cells; host or cells: CHO
T2 sequence (P08172 1-466): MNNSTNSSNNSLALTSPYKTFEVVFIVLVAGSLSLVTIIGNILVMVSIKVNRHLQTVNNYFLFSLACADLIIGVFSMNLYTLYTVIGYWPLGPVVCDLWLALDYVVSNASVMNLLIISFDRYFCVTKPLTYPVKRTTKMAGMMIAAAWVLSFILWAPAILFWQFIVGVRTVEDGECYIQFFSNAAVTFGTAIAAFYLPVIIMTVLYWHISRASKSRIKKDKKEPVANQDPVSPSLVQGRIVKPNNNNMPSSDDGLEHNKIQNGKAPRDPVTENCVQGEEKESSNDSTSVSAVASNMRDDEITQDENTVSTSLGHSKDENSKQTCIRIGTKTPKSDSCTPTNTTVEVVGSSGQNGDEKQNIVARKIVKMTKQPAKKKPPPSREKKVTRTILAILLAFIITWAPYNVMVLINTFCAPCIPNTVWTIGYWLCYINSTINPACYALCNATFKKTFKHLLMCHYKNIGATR
In words: Bioprofiling 6pt Antag M2 CHO. As to conditions: antagonist readout vs Carbachol. Format: cell-based. As for the experimental part: as §1

Data set [3] in a line: HEPG2 cytotoxicity. Format: cell-based. The settings on record: human, HepG2 cells; S1 Data. An excerpt: Supplement pntd.0009196.s001.xlsx, sheet "Complete Dataset" | column: HEPG2 CC50 (uM)
The target in data set [4] is T3, ETB (Homo sapiens, UniProt P24530).
T3 construct: expressed in transfected cells; host or cells: CHO
T3 sequence (P24530 27-442): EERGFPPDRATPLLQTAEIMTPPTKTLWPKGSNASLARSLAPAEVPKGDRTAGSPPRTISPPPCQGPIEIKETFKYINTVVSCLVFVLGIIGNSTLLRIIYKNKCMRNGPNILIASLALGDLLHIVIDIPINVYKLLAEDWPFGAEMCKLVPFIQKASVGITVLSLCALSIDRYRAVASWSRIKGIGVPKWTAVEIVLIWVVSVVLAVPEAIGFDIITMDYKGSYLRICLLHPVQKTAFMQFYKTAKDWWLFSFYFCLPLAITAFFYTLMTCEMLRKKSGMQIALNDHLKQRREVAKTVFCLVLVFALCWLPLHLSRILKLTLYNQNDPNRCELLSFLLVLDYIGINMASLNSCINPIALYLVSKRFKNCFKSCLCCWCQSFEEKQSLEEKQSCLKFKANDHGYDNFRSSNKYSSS
The data set can be described thus: Bioprofiling 6pt Antag ETB CHO. As to conditions: antagonist readout vs BQ-3020. Format: cell-based. As for the experimental part:
as §1

Data set [5] is described as follows: Mouse liver microsomal stability. The class given is in vitro ADME. In outline: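 Test compound at 0.5 μM incubated with 0.25 mg/mL human (200-donor pool) or CD1 mouse liver microsomes, pH 7.4, 37°C, started with […]; sampled 0–30 min. LC-MS/MS quantitation against internal standard; t1/2 and Clint (μL/min/mg) from non-linear regression of % remaining versus time.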
Background: Microsomes from liver hold many membrane-bound enzymes, among them those of drug oxidation.

For data set [6], the target named is T4, PPARgamma (Homo sapiens, UniProt P37231).
T4 sequence (P37231 1-505): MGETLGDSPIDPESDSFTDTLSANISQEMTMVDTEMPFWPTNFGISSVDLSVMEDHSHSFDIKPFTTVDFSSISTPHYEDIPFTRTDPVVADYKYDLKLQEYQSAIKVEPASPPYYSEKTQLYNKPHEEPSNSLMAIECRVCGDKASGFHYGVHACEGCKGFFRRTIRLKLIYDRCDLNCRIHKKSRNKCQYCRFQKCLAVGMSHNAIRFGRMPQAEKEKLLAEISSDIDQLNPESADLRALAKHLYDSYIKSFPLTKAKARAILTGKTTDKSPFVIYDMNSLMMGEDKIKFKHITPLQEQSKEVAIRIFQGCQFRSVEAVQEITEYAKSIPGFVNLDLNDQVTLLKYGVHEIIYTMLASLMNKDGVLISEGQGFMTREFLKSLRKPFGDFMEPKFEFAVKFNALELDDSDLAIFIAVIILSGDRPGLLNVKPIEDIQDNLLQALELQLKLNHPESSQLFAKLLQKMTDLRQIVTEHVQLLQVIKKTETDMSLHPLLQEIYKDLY
In words: Bioprofiling 6pt Ag PPARgamma. Format: biochemical. As to conditions: agonist readout. How it is done: as §1

The target in data set [7] is T5, CB1 (Homo sapiens, UniProt P21554).
T5 construct: expressed in transfected cells; host or cells: CHO
The data set can be described thus: Bioprofiling 6pt Antag CB1 CHO. The class given is cell-based. As to conditions: antagonist readout vs WIN 55,212-2. As for the experimental part:
as §1

Data set [8] concerns the target Cav1.2 (L-type) (Mus musculus, UniProt Q01815). In words: Bioprofiling 6pt Ag Cav1.2 (L-type) ND7/23. Format: cell-based. As to conditions: mouse/rat, ND7/23 cells; agonist readout. As for the experimental part:
as §1

Data set [9] addresses T6, 5-HT1A (Homo sapiens, UniProt P08908).
T6 construct: expressed in transfected cells; host or cells: CHO
T6 sequence (P08908 1-422): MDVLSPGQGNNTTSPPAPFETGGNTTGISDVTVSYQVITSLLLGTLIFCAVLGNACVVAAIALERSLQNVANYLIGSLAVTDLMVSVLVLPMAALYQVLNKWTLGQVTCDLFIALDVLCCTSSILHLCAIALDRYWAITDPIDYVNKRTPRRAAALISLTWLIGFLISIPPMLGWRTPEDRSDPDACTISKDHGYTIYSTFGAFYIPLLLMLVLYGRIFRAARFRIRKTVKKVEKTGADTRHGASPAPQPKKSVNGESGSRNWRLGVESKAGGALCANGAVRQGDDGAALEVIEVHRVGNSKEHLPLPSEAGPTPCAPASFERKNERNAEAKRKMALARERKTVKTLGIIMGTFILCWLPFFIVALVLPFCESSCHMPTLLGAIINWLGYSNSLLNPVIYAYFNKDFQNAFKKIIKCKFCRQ
In words: Bioprofiling 6pt Antag 5-HT1A CHO. The class given is cell-based. The settings on record: antagonist readout vs 5-Carboxytryptamine (5-CT). As for the experimental part: as §1

[10] abbreviates: mouse liver microsome intrinsic clearance.

Chain of Cav1.2 (L-type) (Q01815 whole entry): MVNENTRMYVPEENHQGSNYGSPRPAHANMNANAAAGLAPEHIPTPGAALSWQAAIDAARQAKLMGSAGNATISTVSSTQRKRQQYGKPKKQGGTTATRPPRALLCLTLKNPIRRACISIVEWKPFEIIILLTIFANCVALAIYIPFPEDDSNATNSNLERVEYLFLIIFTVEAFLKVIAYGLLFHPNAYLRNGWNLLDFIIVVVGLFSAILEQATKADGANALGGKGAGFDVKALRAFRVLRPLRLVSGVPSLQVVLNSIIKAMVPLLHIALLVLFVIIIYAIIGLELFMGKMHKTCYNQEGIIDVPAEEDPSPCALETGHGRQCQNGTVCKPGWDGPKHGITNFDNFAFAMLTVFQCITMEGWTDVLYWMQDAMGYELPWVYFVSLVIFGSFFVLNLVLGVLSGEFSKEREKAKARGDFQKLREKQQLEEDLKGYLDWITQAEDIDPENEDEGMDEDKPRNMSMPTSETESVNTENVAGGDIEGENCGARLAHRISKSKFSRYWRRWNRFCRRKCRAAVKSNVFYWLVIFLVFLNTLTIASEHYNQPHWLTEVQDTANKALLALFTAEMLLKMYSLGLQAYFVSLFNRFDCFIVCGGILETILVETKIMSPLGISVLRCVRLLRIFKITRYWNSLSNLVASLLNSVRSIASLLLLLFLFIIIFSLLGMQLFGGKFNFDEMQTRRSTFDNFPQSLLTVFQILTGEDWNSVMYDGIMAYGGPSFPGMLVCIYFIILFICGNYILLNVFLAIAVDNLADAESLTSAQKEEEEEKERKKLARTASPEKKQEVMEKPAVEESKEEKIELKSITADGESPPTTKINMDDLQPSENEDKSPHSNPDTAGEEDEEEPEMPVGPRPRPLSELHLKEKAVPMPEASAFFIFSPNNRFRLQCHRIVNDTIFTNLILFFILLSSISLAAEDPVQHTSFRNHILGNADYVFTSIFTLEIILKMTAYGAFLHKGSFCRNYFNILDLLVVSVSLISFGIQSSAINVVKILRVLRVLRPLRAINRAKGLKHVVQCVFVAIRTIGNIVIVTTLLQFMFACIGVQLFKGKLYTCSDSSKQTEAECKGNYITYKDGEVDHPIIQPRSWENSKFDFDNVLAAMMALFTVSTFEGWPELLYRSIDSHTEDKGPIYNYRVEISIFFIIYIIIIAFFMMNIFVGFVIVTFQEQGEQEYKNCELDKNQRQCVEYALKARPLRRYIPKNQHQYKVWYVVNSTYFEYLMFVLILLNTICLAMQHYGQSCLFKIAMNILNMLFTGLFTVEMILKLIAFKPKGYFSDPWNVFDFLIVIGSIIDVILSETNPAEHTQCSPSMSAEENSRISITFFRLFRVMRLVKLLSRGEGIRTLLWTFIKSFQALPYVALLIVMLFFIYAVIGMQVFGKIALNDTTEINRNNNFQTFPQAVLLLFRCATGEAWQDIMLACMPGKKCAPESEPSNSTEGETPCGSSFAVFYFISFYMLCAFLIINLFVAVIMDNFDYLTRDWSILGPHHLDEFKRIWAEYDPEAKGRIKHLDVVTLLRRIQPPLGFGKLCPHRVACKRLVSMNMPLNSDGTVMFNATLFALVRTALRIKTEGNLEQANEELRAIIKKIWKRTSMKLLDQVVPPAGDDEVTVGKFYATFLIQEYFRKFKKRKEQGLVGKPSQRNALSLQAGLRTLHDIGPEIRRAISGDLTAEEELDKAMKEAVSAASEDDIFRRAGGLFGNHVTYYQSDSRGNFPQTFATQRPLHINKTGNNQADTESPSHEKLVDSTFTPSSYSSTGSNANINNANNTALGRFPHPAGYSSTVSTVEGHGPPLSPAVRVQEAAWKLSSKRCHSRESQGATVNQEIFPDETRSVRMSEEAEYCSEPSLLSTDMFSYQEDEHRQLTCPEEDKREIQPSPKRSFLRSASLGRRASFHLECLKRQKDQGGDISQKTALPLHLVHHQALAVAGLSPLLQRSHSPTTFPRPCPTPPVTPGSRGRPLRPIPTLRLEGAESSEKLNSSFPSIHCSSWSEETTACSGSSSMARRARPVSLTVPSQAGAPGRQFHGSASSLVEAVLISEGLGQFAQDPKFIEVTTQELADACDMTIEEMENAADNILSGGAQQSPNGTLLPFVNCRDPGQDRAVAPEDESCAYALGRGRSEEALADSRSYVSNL
T5 sequence (P21554 whole entry): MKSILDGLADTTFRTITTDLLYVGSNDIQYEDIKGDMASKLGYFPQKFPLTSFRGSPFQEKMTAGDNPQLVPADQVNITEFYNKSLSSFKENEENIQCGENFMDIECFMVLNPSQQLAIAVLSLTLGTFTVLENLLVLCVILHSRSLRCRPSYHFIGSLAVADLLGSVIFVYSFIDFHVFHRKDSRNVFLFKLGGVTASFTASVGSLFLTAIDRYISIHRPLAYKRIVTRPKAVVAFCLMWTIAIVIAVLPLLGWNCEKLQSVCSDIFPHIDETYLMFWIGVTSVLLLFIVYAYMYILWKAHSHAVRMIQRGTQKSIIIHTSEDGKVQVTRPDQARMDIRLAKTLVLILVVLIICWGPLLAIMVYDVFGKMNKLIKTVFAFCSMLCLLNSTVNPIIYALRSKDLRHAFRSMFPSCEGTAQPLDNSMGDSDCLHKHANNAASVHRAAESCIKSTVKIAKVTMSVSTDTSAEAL
T1 sequence (P08588 whole entry): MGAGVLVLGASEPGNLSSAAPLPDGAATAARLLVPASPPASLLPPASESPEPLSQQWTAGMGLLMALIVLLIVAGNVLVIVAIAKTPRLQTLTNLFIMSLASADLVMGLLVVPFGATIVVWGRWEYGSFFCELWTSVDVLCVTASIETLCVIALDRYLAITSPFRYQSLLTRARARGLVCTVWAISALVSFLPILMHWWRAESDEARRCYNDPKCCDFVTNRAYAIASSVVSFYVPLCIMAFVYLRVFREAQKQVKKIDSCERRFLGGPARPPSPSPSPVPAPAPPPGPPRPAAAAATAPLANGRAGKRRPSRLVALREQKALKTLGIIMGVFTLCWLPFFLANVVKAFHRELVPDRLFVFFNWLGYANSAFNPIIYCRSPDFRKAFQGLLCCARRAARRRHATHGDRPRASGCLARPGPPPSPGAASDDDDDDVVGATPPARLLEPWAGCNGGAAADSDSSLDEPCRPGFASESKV

One may read the IC50 as the concentration that inhibits the measured activity by half. A lower IC50 goes with greater potency. A word on the CC50: it is the concentration giving 50% cytotoxicity. As usually defined, the EC50 is the midpoint of the concentration-response curve. Turning to `Cn1nccc1C(=O)Nc1nc2ccc(C#N)cc2n1CC(C)(C)C` [Compound 29, O=C(Nc1n(CC(C)(C)C)c(c2n1)cc(C#N)cc2)c3n(C)ncc3], the half-inhibitory concentration (IC50) in data set [1], in data set [2], in data set [4], in [7] and in data set [9] was more than 10 µM throughout. For the same compound, in data set [3], the 50% cytotoxic concentration (CC50) was found to be 9.08 µM. Moreover, in data set [5] (CD1, mouse, liver microsomes, pH 7.4, mouse liver microsome intrinsic clearance, read-out: MLM Clint), the microsomal CLint at 0.5 μM is 17 µL/min/mg. Besides, the EC50 in data set [6] and in data set [8] was more than 10 µM in each case.

Take `N#Cc1ccc2nc(NC(=O)c3ccnc(C(F)(F)F)c3)n(CC(F)(F)F)c2c1` [Compound 44, O=C(c1ccnc(C(F)(F)F)c1)Nc2nc(ccc(C#N)c3)c3n2CC(F)(F)F]: the IC50 in data set [1], in data set [2], in data set [4], in data set [7] and in data set [9] was more than 10 µM each time. In addition, the midpoint of cytotoxicity in data set [3], the CC50, lay at 2.38 µM. The “MLM CLint” value in data set [5] (setting [10]) was determined as 27 µL/min/mg. The half-maximal effective concentration (EC50) in data set [6] and in data set [8] was more than 10 µM in each case.

`Cn1nc(C(F)(F)F)cc1C(=O)Nc1nc2ccc(C#N)cc2n1CC(F)(F)F` [Compound 39, O=C(c1cc(C(F)(F)F)nn1C)Nc2nc(ccc(C#N)c3)c3n2CC(F)(F)F]: the 50% inhibitory concentration (IC50) in data set [1], in data set [2], in [4], in data set [7] and in [9] was more than 10 µM throughout. In data set [3], this compound yielded a CC50 of 1.13 µM. The “MLM CLint” value in [5] (setting [10]) is 28 µL/min/mg. Besides, the EC50 in data set [6] and in data set [8] was more than 10 µM throughout.

Consider `COc1ccc(C(=O)Nc2nc3ccc(C#N)cc3n2CC(F)(F)F)cn1` [Compound 43, O=C(c1ccc(OC)nc1)Nc2nc(ccc(C#N)c3)c3n2CC(F)(F)F], for which the IC50 in data set [1], in data set [2], in [4], in data set [7] and in data set [9] was more than 10 µM in each case. The compound further had a CC50 in [3] of 2.6 µM. Also, the “MLM CLint” value in data set [5] (S1 Data) turned out to be 170 µL/min/mg. In addition, the 50% effective concentration (EC50) in data set [6] and in data set [8] was more than 10 µM each time.

With `N#Cc1ccc2nc(NC(=O)c3ccc(C(F)(F)F)nc3)n(CC(F)(F)F)c2c1` [Compound 45, O=C(c1ccc(C(F)(F)F)nc1)Nc2nc(ccc(C#N)c3)c3n2CC(F)(F)F], the IC50 in [1], in [2], in data set [4], in [7] and in data set [9] was more than 10 µM throughout. In [3], the 50% cytotoxic concentration (CC50) was 1.12 µM. The “MLM CLint” value in data set [5] (S1 Data) came out at 18 µL/min/mg. The EC50 in data set [6] and in [8] was more than 10 µM each time.

With `Cn1nccc1C(=O)Nc1nc2ccc(C#N)cc2n1CC(F)(F)F` [Compound 30, O=C(c1ccnn1C)Nc2nc(ccc(C#N)c3)c3n2CC(F)(F)F], the IC50 in [1], in data set [2], in data set [4], in data set [7] and in data set [9] was more than 10 µM in each case. Also, in data set [3], half-maximal cytotoxicity (CC50) was put at 5.46 µM. Also, in data set [5] (setting [10]), the “MLM CLint” value came out at 20 µL/min/mg. The concentration for a half-maximal effect (EC50) in data set [6] and in [8] was more than 10 µM throughout.
